From ChEMBL document CHEMBL5154822, “Novel inhibitors of AChE and Aβ aggregation with neuroprotective properties as lead compounds for the treatment of Alzheimer's disease” (Eur J Med Chem, 2022)

Tests used:
Acetylcholinesterase = target: T1, Acetylcholinesterase (Mus musculus, UniProt P21836); test: Inhibition of AChE in mouse cerebral cortex using acetylthiocholine iodide as substrate preincubated for 10 mins followed by substrate addition and measured for 180 secs by Ellman's spectrophotometric method; assay type: tissue-based
T1 sequence (P21836 whole entry): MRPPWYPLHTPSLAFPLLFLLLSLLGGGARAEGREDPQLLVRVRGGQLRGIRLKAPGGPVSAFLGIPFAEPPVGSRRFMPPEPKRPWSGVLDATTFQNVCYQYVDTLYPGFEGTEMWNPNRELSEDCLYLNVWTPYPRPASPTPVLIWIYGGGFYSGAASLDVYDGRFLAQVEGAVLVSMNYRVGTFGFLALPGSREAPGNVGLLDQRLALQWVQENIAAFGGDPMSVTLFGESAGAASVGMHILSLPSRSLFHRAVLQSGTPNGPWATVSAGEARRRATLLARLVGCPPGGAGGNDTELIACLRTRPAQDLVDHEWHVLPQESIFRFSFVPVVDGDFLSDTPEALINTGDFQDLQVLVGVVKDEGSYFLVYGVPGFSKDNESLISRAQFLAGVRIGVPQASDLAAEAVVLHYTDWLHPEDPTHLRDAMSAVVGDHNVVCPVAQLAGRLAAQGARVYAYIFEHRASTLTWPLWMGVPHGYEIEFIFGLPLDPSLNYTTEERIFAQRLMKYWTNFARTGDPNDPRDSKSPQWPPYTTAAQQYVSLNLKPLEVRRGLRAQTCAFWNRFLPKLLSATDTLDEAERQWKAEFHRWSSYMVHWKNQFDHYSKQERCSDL

[1] = target: T2, Acetylcholinesterase (Mus musculus) (UniProt P21836); test: Inhibition of AChE in mouse cerebral cortex using acetylthiocholine iodide as substrate at 40 uM preincubated for 10 mins followed by substrate addition and measured for 180 secs by Ellman's spectrophotometric method; assay type: tissue-based; conditions: time 780.0 sec
T2 sequence (whole entry): T1 sequence (P21836 whole entry)

Cytochrome P450 2D6 = Cytochrome P450 2D6 (Homo sapiens, UniProt P10635); test: Inhibition of CYP2D6 in human liver microsomes using dextromethorphan as substrate preincubated for 10 mins followed by NADPH addition and measured after 10 mins by LC-MS/MS analysis; assay type: ADME, Microsome
[2] = Inhibition of CYP3A4 in human liver microsomes using testosterone as substrate preincubated for 10 mins followed by NADPH addition and measured after 10 mins by LC-MS/MS analysis; assay type: ADME, Microsome
Cytochrome P450 2C9 = Cytochrome P450 2C9 (Homo sapiens, UniProt P11712); test: Inhibition of CYP2C9 in human liver microsomes using diclofenac as substrate preincubated for 10 mins followed by NADPH addition and measured after 10 mins by LC-MS/MS analysis; assay type: ADME, Microsome
[3] = Inhibition of CYP3A4 in human liver microsomes using midazolam as substrate preincubated for 10 mins followed by NADPH addition and measured after 10 mins by LC-MS/MS analysis; assay type: ADME, Microsome

Sequence of Cytochrome P450 2D6 (P10635 whole entry): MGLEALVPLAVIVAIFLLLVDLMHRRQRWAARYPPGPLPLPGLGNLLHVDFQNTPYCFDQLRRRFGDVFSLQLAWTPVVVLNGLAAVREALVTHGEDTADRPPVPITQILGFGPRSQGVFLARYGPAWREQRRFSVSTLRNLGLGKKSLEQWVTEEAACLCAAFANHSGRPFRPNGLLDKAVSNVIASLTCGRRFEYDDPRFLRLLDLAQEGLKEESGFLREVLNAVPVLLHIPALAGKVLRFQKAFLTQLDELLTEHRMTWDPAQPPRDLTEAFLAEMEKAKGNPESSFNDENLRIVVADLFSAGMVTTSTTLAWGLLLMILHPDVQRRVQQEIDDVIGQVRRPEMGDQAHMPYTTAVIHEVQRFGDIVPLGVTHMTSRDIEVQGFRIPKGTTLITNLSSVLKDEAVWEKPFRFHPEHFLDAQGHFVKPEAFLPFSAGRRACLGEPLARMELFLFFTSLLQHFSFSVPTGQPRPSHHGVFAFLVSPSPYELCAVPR
Sequence of Cytochrome P450 2C9 (P11712 whole entry): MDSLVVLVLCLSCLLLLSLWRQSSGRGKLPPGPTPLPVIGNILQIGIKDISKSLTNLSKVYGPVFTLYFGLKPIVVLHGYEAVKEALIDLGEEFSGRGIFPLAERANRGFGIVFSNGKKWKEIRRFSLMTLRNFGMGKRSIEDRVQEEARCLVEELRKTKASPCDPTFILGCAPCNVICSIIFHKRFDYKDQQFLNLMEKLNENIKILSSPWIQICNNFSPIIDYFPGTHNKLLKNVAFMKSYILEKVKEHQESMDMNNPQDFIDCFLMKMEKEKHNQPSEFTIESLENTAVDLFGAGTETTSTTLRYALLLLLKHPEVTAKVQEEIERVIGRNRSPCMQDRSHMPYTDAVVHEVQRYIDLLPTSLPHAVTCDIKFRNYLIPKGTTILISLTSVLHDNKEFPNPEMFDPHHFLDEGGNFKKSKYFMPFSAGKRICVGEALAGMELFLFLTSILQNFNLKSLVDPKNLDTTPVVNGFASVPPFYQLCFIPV

COc1cc2c(cc1OC)S(=O)(=O)C(CC1(F)CCN(Cc3ccc(F)cc3)CC1)C2 (centres undefined)
IC50 (Acetylcholinesterase): 11.3 nM

COc1cc2c(cc1OC)S(=O)(=O)/C(=C/C1CCN(Cc3ccccc3)CC1)CC2
IC50 (Acetylcholinesterase): 1820 nM

CCOC(=O)/C(=C\C1CCN(Cc2ccccc2)CC1)S(=O)(=O)c1ccc(OC)c(OC)c1
inhibition [1]: 12.4%

COc1cc2c(cc1OC)S(=O)(=O)C(CC1CCN(Cc3ccc(F)cc3F)CC1)C2 (centres undefined)
IC50 (Acetylcholinesterase): 14.7 nM

COc1cc2c(cc1OC)S(=O)(=O)/C(=C/C1CCN(Cc3ccccc3)CC1)C2
IC50 (Acetylcholinesterase): 4.7 nM

COc1cc2c(cc1OC)S(=O)(=O)C(CC1(F)CCN(Cc3ccccc3C)CC1)C2 (centres undefined)
IC50 (Acetylcholinesterase): 12.1 nM

COc1ccc(S(=O)(=O)/C(Cl)=C/C2CCN(Cc3ccccc3)CC2)cc1OC
IC50 (Acetylcholinesterase): 340 nM

COc1cc2c(cc1OC)S(=O)(=O)C(CC1(F)CCN(Cc3ccccc3C(F)(F)F)CC1)C2 (centres undefined)
IC50 (Acetylcholinesterase): 3010 nM

COc1cc2c(cc1OC)S(=O)(=O)C(CC1CCN(Cc3c(F)cc(F)cc3F)CC1)C2 (centres undefined)
IC50 (Acetylcholinesterase): 128 nM

COc1cc2c(cc1OC)S(=O)(=O)C(F)(CC1CCN(Cc3cccc(F)c3)CC1)C2 (centres undefined)
IC50 (Cytochrome P450 2D6): > 20000 nM | IC50 [2]: > 20000 nM | IC50 (Cytochrome P450 2C9): > 20000 nM | IC50 [3]: > 20000 nM

COc1cc2c(cc1OC)S(=O)(=O)C(CC1(F)CCN(Cc3cccc(F)c3)CC1)C2 (centres undefined)
IC50 (Acetylcholinesterase): 5.1 nM

COc1cc2c(cc1OC)S(=O)(=O)C(CC1CCN(Cc3ccc(F)cc3)CC1)C2 (centres undefined)
IC50 (Acetylcholinesterase): 11.3 nM

COc1cc2c(cc1OC)S(=O)(=O)C(CC1(F)CCN(Cc3ccccc3)CC1)C2 (centres undefined)
IC50 (Acetylcholinesterase): 4.1 nM

COc1cc2c(cc1OC)S(=O)(=O)C(CC1(F)CCN(Cc3ccccc3Cl)CC1)C2 (centres undefined)
IC50 (Acetylcholinesterase): 5.5 nM

CO/C(=C\C1CCN(Cc2ccccc2)CC1)S(=O)(=O)c1ccc(OC)c(OC)c1
IC50 (Acetylcholinesterase): 8440 nM

COc1cc2c(cc1OC)S(=O)(=O)/C(=C\C1CCN(Cc3ccccc3)CC1)C2
IC50 (Acetylcholinesterase): 11.1 nM
